Reference: US9078440B2, “6-(2-aminophenyl)picolinates and their use as herbicides” (BAYER INTELLECTUAL PROPERTY GMBH, priority 2010, dated 2015)

What was measured:
Type in all cases: in vivo
[1] = test system: Polygonum (Fallopia) convolvulus; assay: Pre-emergence herbicidal effect, greenhouse pot test; conditions: 1.28 kg of active substance per hectare, assessed visually after 3 weeks
From the text: (§1) Pre-emergence Herbicidal Effect and Crop Plant Compatibility
(§2) Seeds of monocotyledonous and dicotyledonous weed plants and crop plants are placed in wood-fibre pots in sandy loam and covered with soil. The inventive compounds, formulated in the form of wettable powders (WP) or as emulsion concentrates (EC), are then applied to the surface of the covering soil as an aqueous suspension or emulsion at a water application rate of 600 to 800 I/ha (converted) with addition of 0.2% wetting agent. After the treatment, the pots are placed in a greenhouse and kept under good growth conditions for the test plants. The damage to the test plants is assessed visually after a test period of 3 weeks by comparison with untreated controls (herbicidal activity in percent (%): 100% action=the plants have died, 0% action=like control plants).

Viola tricolor [2] = assay: as above; conditions: 1.28 kg of active substance per hectare, assessed visually after 3 weeks
From the text: as §1, §2

Amaranthus retroflexus [3] = assay: as above; conditions: 1.28 kg of active substance per hectare, assessed visually after 3 weeks
From the text: as §1, §2

Matricaria inodora = assay: Post-emergence herbicidal effect, greenhouse pot test; conditions: 1.28 kg or less active substance per hectare, scored visually after about 3 weeks
Protocol: (§3) Post-emergence herbicidal effect and crop plant compatibility
(§4) Seeds of monocotyledonous and dicotyledonous weed and crop plants are placed in sandy loam in wood-fibre pots, covered with soil and cultivated in a greenhouse under good growth conditions. 2 to 3 weeks after sowing, the test plants are treated at the one-leaf stage. The inventive compounds, formulated in the form of wettable powders (WP) or as emulsion concentrates (EC), are then sprayed onto the green parts of the plants as an aqueous suspension or emulsion at a water application rate of 600 to 800 I/ha (converted) with addition of 0.2% by weight of wetting agent. After the test plants have been left to stand in the greenhouse under optimal growth conditions for about 3 weeks, the action of the formulations is scored visually in comparison to untreated controls (herbicidal action in percent (%): 100% action=the plants have died, 0% action=like control plants).

[4] = test system: Pharbitis (Ipomoea) purpurea; assay: as above; conditions: 1.28 kg or less active substance per hectare, scored visually after about 3 weeks
Protocol: as §3, §4

Veronica persica = assay: as above; conditions: 1.28 kg or less active substance per hectare, scored visually after about 3 weeks
Protocol: as §3, §4

[5] = test system: Polygonum (Fallopia) convolvulus; assay: as above; conditions: 1.28 kg or less active substance per hectare, scored visually after about 3 weeks
Protocol: as §3, §4

Stellaria media = assay: as above; conditions: 1.28 kg or less active substance per hectare, scored visually after about 3 weeks
Protocol: as §3, §4

Viola tricolor [6] = assay: as above; conditions: 1.28 kg or less active substance per hectare, scored visually after about 3 weeks
Protocol: as §3, §4

Amaranthus retroflexus [7] = assay: as above; conditions: 1.28 kg or less active substance per hectare, scored visually after about 3 weeks
Protocol: as §3, §4

Measured: herbicidal action

COC(=O)c1nc(-c2ccc(Cl)cc2N)cc(N)c1Cl [compound 58, methyl 4-amino-6-(2-amino-4-chlorophenyl)-3-chloropyridine-2-carboxylate]
at least 90%: all assays above
